Assays:
[1] = tested on: detached leaves of Triticum aestivum cv. Hereward; experiment: Membrane lipid peroxidation (MDA, TBA method) in detached wheat leaves during dark senescence; format: in vivo; settings: four days in the dark, Control 18.9 (±2.2)
Protocol: A typical symptom associated with senescence as a direct consequence of increased reactive oxygen species is lipid peroxidation. Therefore the levels of MDA, a decomposition product of lipid peroxidation, were measured in detached wheat leaves that were exposed to the prepared novel derivatives and kinetin for four days in the dark as described in Example 8. MDA levels were measured using a thiobarbituric acid (TBA) method. In detail, 100 mg of fresh plant material was homogenized by high speed shaking in a ball mill (MM301, Retsch, Germany) with 1 mL of 80% methanol. The crude extract was centrifuged at 10,000×g for 5 min, and 100 μL aliquot of supernatant was vortexed with 100 μL of 0.5% (w/v) TBA containing 0.1% (w/v) trichloroacetic acid, and the resulting solution was then incubated for 30 min at 95° C. The samples were quickly cooled on ice and recentrifuged for 5 min at 1000×g. The absorbance of supernatant was measured at 532 nm with background subtraction at 600 nm and the amount of MDA-TBA complex was calculated from the coefficient of absorbance 155 mM^−1cm^−1.
(§1) Seeds of winter wheat, Triticum aestivum cv. Hereward, were washed under running water for 24 hours and then sown on vermiculite soaked with Knop's solution. They were placed in the grown chamber at 25° C. with a 16/8 hours light period at […]. After 7 days, the first leaf was fully developed and the second leaf had started to grow. A tip section of the first leaf, approximately 35 mm long, was removed from 5 seedlings and trimmed slightly to a combined weight of 100 mg. The basal ends of the five leaf tips were placed in the wells of a microtiter polystyrene plate containing […] of a cytokinin solution each. The entire plate was inserted into a plastic box lined with paper tissues soaked in distilled water to prevent leaf sections from drying out. After 96 hours incubation in the dark at 25° C., the leaves were removed and chlorophyll extracted by heating at 80 C for 10 min in 5 ml of 80% ethanol (v/v). The sample volume was then restored to 5 ml by the addition of 80% ethanol (v/v). The absorbance of the extract was recorded at 665 nm. In addition, chlorophyll extracts from fresh leaves and leaf tips incubated in deionized water were measured. From the obtained data, the concentration with highest activity was selected for each compound tested. Relative activity of the compound at this concentration was calculated (see Table 6 below). The activity obtained for 10^−4 M kinetin (Kin) was set as 100%. The values shown are means of five replicates and the whole experiment was repeated twice.

[2] = tested on: excised wheat leaf tips (Triticum aestivum cv. Hereward); experiment: Senescence inhibition on winter wheat leaf segments (retention of chlorophyll); format: in vivo; settings: 10^−4 mol/L; 96 hours in the dark; activity of kinetin set at 100%
Protocol: as §1
The compounds to be tested were dissolved in dimethylsulfoxide (DMSO) and the solution brought up to 10^−3 M with distilled water. […] As summarized in Table 6 below, the presence of C-8 substitutent was beneficial and led to increase of antisenescent properties.

[3] = tested on: human diploid fibroblasts (HDF cells; HDF25, HDF45, HDF80); experiment: Inhibition of human cell aging: senescent cells by beta-galactosidase staining; format: cell-based; settings: for SENESCENT CELLS (%) HDF25: human diploid fibroblasts passage 25, beta-galactosidase staining; for SENESCENT CELLS (%) HDF45: human diploid fibroblasts passage 45, beta-galactosidase staining; for SENESCENT CELLS (%) HDF80: human diploid fibroblasts passage 80, beta-galactosidase staining
Protocol: In this example, human diploid fibroblasts (HDF cells of various passage levels: passage 25—designated HDF25; passage 45—designated HDF45; passage 80—designated HDF80) were stained for beta-galactosidase activity. The medium used for the cell cultivation was removed the cells were washed twice in […], and fixed in 2-3 ml of fixing solution comprised of a 2% formaldehyde and 0.2% glutaraldehyde in PBS. The cells were incubated at room temperature for 5 minutes, and then washed twice with PBS. The cells were subsequently incubated at 37° C. […] In this experiment, senescent cells, but no other cells were stained blue due to the action of beta-galactosidase on the substrate.

[4] = tested on: Salmonella typhimurium histidien auxotrophs TA98 and TA100; experiment: Ames test; format: cell-based; settings: 2.5 to 5000 μg/plate; presence and absence of Aroclor-induced rat liver S9
Protocol: A number of tests related to the safety of have been carried out using conventionally accepted protocols and procedures. The results of these studies are summarized herein. Tests were carried out using DMSO as solvent and dose levels of compound 21, 24, 26, 27, 39, 41, 45, 48, 50, 52, 53, 54, 55, 56, 63, 64, 66, 67, 68, 69, 70, 71, 72, 74, 76, 124, 125, 126, 127, 128, 129, 130, 145, 146, 147, 149, 150, 151, 208, 216, 218 a 243 at 2.5, 5.0, 15, 50, 500, 1500, and 5000 μg/plate based upon standard protocol and procedures (Ames et al., Mutation Research, 31, 347-364 (1975); Maron et al., Mutation Research, 113, 173-215 (1983)).

Structure (SMILES)	MDA (nmol/g FW) [1]	also measured
Clc1nc2c(NCc3ccco3)ncnc2n1C1CCCCO1 (stereo not drawn) [Compound 1, 8-Chloro-6-furfurylamino-9-(tetrahydropyran-2-yl)-9H-purine]	12.8 (±1.0) nmol/g FW	Activity (%) (s.d.), retention of chlorophyll [2]: 105 (±3) %
Oc1ccc(CNc2ncnc3c2nc(Cl)n3C2CCCCO2)cc1O (stereo not drawn) [Compound 10]	12.8 (±1.1) nmol/g FW	Activity (%) (s.d.), retention of chlorophyll [2]: 132 (±7) %
Oc1ccc(CNc2ncnc3c2nc(Cl)n3C2CCCCO2)cc1 (stereo not drawn) [Compound 13]	11.9 (±1.3) nmol/g FW	–
COc1cc(CNc2ncnc3c2nc(Cl)n3C2CCCCO2)cc(OC)c1O (stereo not drawn) [Compound 14]	12.2 (±1.4) nmol/g FW	–
Oc1ccc(Nc2ncnc3c2nc(Cl)n3C2CCCCO2)cc1 (stereo not drawn) [Compound 16]	11.6 (±1.0) nmol/g FW	–
Brc1nc2c(NCc3ccco3)ncnc2n1C1CCCCO1 (stereo not drawn) [Compound 21, 8-Bromo-6-furfurylamino-9-(tetrahydropyran-2-yl)-9H-purine]	12.1 (±1.2) nmol/g FW	Activity (%) (s.d.), retention of chlorophyll [2]: 108 (±3) %; SENESCENT CELLS (%) HDF25 [3]: 3%; SENESCENT CELLS (%) HDF45 [3]: 5%; SENESCENT CELLS (%) HDF80 [3]: 20%; mutagenic response [4]: no positive mutagenic responses
C/C(=C/CNc1ncnc2c1nc(Br)n2C1CCCCO1)CO (stereo not drawn) [Compound 25]	11.7 (±1.1) nmol/g FW	–
Oc1ccc(CNc2ncnc3c2nc(Br)n3C2CCCCO2)cc1O (stereo not drawn) [Compound 39]	11.6 (±1.2) nmol/g FW	Activity (%) (s.d.), retention of chlorophyll [2]: 128 (±3) %; SENESCENT CELLS (%) HDF25 [3]: 3%; SENESCENT CELLS (%) HDF45 [3]: 4%; SENESCENT CELLS (%) HDF80 [3]: 20%; mutagenic response [4]: no positive mutagenic responses
Oc1ccc(Nc2ncnc3c2nc(Br)n3C2CCCCO2)cc1 (stereo not drawn) [Compound 44]	10.7 (±0.8) nmol/g FW	–
C/C(=C/CNc1ncnc2c1nc(N(C)C)n2C1CCCO1)CO (stereo not drawn) [Compound 189]	10.8 (±0.9) nmol/g FW	–
Nc1nc2c(NCc3ccco3)ncnc2n1C1CCCO1 (stereo not drawn) [Compound 197]	9.2 (±0.6) nmol/g FW	–
Nc1nc2c(NCc3ccc(O)cc3)ncnc2n1C1CCCO1 (stereo not drawn) [Compound 201]	8.7 (±0.7) nmol/g FW	–
Oc1nc2c(NCc3ccco3)ncnc2n1C1CCCO1 (stereo not drawn) [Compound 221]	10.2 (±0.5) nmol/g FW	–
Oc1ccc(CNc2ncnc3c2nc(O)n3C2CCCO2)cc1 (stereo not drawn) [Compound 224]	9.3 (±0.8) nmol/g FW	–
NCCNc1nc2c(NCc3ccco3)ncnc2n1C1CCCO1 (stereo not drawn) [Compound 233]	9.8 (±0.7) nmol/g FW	–
NCCCNc1nc2c(NCc3ccco3)ncnc2n1C1CCCO1 (stereo not drawn) [Compound 238]	9.4 (±0.7) nmol/g FW	–
NCCCOc1nc2c(NCc3ccco3)ncnc2n1C1CCCO1 (stereo not drawn) [Compound 241]	9.6 (±0.8) nmol/g FW	–
CC(C)=CCNc1ncnc2c1nc(NCCO)n2C1CCCO1 (stereo not drawn) [Compound 245]	9.5 (±0.6) nmol/g FW	–

Source: patent US10093675B2, “6,8-disubstituted-9-(heterocyclyl)purines, compositions containing these derivatives and their use in cosmetic and medicinal applications” (USTAV EXPERIMENTALNI BOTANIKY AV CR, V.V.I., priority 2014, dated 2018)
